Data taken from patent US9993465B2, “2,5-disubstituted-pyridyl nicotinic ligands, and methods of use thereof” (Georgetown University, priority 2011, dated 2018).
Where two headings read alike, the source gives them in different places.

Tests used:
[1] = target: native nAChRs of rat forebrain (Rattus norvegicus, UniProt P09483+P12390); format: binding; conditions: Table 1
Procedure: (§1) To determine selectivities of these compounds in binding assays among the three predominant nAChR subtypes, α3β4, α4β2 and α7, the ratios of Ki values (α3β4/α4β2 and α7/α4β2) were determined.
Briefly, cultured cells at >80% confluence were removed from their flasks (80 cm^2) with a disposable cell scraper and placed in 10 mL of 50 mM Tris.HCl buffer (pH 7.4, 4° C.). The cell suspension was centrifuged at 10,000×g for 5 min and the pellet was collected. The cell pellet was then homogenized in 10 mL buffer with a polytron homogenizer and centrifuged at 36,000 g for 10 min at 4° C. The membrane pellet was resuspended in fresh buffer, and aliquots of the membrane preparation were used for binding assays. […] Bound and free ligands were separated by vacuum filtration through Whatman GF/C filters treated with 0.5% polyethylenimine. The filter-retained radioactivity was measured by liquid scintillation counting. Specific binding was defined as the difference between total binding and nonspecific binding. Data from competition binding assays were analyzed using Prism 5 (GraphPad Software, San Diego, Calif.).
We measured the in vitro binding affinities of the ligands for defined receptor subtypes (α2β2, α2β4, α3β2, α3β4, α4β2, α4Γ4, α6β2, α6β4, and α7) expressed in stably transfected cell lines. […] Rat forebrain homogenates were included to allow comparison between the heterologous and native α4β2 and α7 nAChRs.

[2] = tested on: ferrets; test: Emesis studies in ferrets; format: in vivo, ferret (Mustela putorius furo)
Procedure: Effects of (S)-15 in causing nausea and emesis were assessed in a ferret model. For comparison, varenicline was also tested. […] In general, all animals remained alert and active with periods of inactivity that mirrored their baseline behavior within the 1 hr observation period.
In one animal, this behavior was accompanied by oral stereotypy (licking), whereas in two animals it was interspersed by episodes of backward walking. On the average, these behaviors manifested around ˜2.20 min. […] Occasionally, when animals tried to ambulate they would immediately cease their movement after each attempt. This would, be followed by a momentary increase in breathing, giving the impression that the animal was in distress.
Studies were undertaken in male ferrets (Mustela putorius furo) weighing 0.9-1.5 kg (Marshall Farms, N.Y.). They were housed in controlled conditions of room temperature (22° C.) and light (12:12 h light-dark cycle) with free access to food and water. Prior to each experiment, food was withheld overnight, whereas water was provided ad libitum.
Emetic testing consisted of placing animals individually in a polycarbonate enclosure. Following a 30 min acclimation period, each animal randomly received a subcutaneus injection of varencline or compound (S)-15 (YL-1-127) in the subscapular region. A 60 min observation and video recording followed the drug administration. […] All drugs were dissolved in sterile saline.
Video analysis of the incidence of emesis, stereotypical behaviors (such as licking, mouth-clawing, backward walking, gagging, and burying of the head in cage) and GI side effects (diarrhea) was done off-line. Stereotypical behaviors are thought to be reflective of a subjective sensation of nausea. The emetic index of a drug was calculated as the percentage of animals displaying emesis (one or more times in 60 min) divided by the total number of animals tested. […]
The Nausea Index for the stereotypical behaviors was derived from the mean±SEM number of nausea behaviors observed among all animals in a given treatment group. Significance was determined at p<0.05.

[3] = target: human α4β2 nAChRs (Homo sapiens (Human), UniProt P17787+P43681); test: 86Rb+ efflux assay, agonist activity, α4β2; format: cell-based
Procedure: (§2) Their agonist activities were assessed by measuring stimulated ^86Rb^+ efflux from stably transfected cells, either expressing human α4β2 nAChRs or rat α3β4 receptors.
(§3) The cell lines expressing defined rat nAChR subtypes were established previously by stably transfecting HEK 293 cells with rat nAChR subunit genes. The cell line expressing human α4β2 nAChRs, YXα4β2H1, was established recently. These cell lines were maintained in minimum essential medium (MEM) supplemented with 10% fetal bovine serum, 100 units/mL penicillin G, […] and selective antibiotics at 37° C. with 5% CO2 in a humidified incubator. Fetal bovine serum was provided by Gemini Bio-Products (Woodland, Calif.). Tissue culture medium and antibiotics were obtained from Invitrogen Corporation (Carlsbad, Calif.), unless otherwise stated.
Functional properties of compounds at nAChRs expressed in the transfected cells were measured using ^86Rb^+ efflux assays as described previously. In brief, cells expressing human α4β2 or rat α3β4 nAChRs were plated into 24-well plates coated with poly-D-lysine. The plated cells were grown at 37° C. for 18 to 24 hour to reach 85-95% confluence. The cells were then incubated in growth medium (0.5 mL/well) containing ^86Rb^+ (2 μCi/mL) for 4 hour at 37° C. The loading mixture was then aspirated, and the cells were washed four times with 1 mL buffer (15 mM HEPES, 140 mM NaCl, 2 mM KCl, 1 mM MgSO4, 1.8 mM CaCl2, 11 mM Glucose, pH 7.4). One mL of buffer with or without compounds to be tested was then added to each well. After incubation for 2 min, the assay buffer was collected for measurements of ^86Rb^+ released from the cells. Cells were then lysed by adding 1 ml of 100 mM […] to each well, and the lysate was collected for determination of the amount of ^86Rb^+ that was in the cells at the end of the efflux assay. Radioactivity of assay samples and lysates was measured by liquid scintillation counting. Total loading (cpm) was calculated as the sum of the assay sample and the lysate of each well. The amount of ^86Rb^+ efflux was expressed as a percentage of ^86Rb^+ loaded. […] For obtaining EC50 and Emax values, stimulation curves were constructed in which 8 different concentrations of a ligand were included in the assay. […] EC50, Emax and IC50(10′) values were determined by nonlinear least-squares regression analyses (GraphPad, San Diego, Calif.).
The functional properties of the ligands were determined by ^86Rb^+ efflux assays in cells expressing α3β4 and α4β2 nAChR subtypes. The functional activity of each ligand was measured for its agonism, antagonism and desensitization ability. Agonist activity for each of the ligands was tested at eight different concentrations. […]

[4] = target: rat α4β2 nAChR (Rattus norvegicus (Rat), UniProt P09483+P12390); format: binding; conditions: versus Sazetidine-A
Procedure: as §1, §3
Briefly, cultured cells at >80% confluence were removed from their flasks (80 cm^2) with a disposable cell scraper and placed in 10 mL of 50 mM Tris.HCl buffer (pH 7.4, 4° C.). […] The filter-retained radioactivity was measured by liquid scintillation counting. […] Data from competition binding assays were analyzed using Prism 5 (GraphPad Software, San Diego, Calif.).
We measured the in vitro binding affinities of the ligands for defined receptor subtypes (α2β2, α2β4, α3β2, α3β4, α4β2, α4Γ4, α6β2, α6β4, and α7) expressed in stably transfected cell lines. […]

[5] = target: rat α3β4 nAChRs (Rattus norvegicus (Rat), UniProt P04757+P12392); test: 86Rb+ efflux assay, agonist activity, α3β4; format: cell-based
Procedure: as §2
as §3, with “Tissue culture medium and antibiotics were obtained from Invitrogen Corporation (Carlsbad, Calif.), unless otherwise stated.” left out
Functional properties of compounds at nAChRs expressed in the transfected cells were measured using ^86Rb^+ efflux assays as described previously. […] Radioactivity of assay samples and lysates was measured by liquid scintillation counting. Total loading (cpm) was calculated as the sum of the assay sample and the lysate of each well. The amount of ^86Rb^+ efflux was expressed as a percentage of ^86Rb^+ loaded. […] EC50, Emax and IC50(10′) values were determined by nonlinear least-squares regression analyses (GraphPad, San Diego, Calif.).
The functional properties of the ligands were determined by ^86Rb^+ efflux assays in cells expressing α3β4 and α4β2 nAChR subtypes. […]

`CCCCC#Cc1cnc(C)c(OC[C@H]2CCN2)c1` [(R)-15, (R)-3-(azetidin-2-ylmethoxy)-5-(hex-1-ynyl)-2-methylpyridine] gave a Ki [1] of 4300 nM.

`CCCCC#Cc1cnc(C)c(OC[C@H]2CCCN2)c1` [(R)-16, (R)-5-(hex-1-ynyl)-2-methyl-3-(pyrrolidin-2-ylmethoxy) pyridine] was tested, and the Ki [1] was 110000 nM.

`CCCCC#Cc1cnc(C)c(OC[C@@H]2CCN2)c1` [(S)-15, (S)-3-(azetidin-2-ylmethoxy)-5-(hex-1-ynyl)-2-methylpyridine] was tested, and the Ki [1] was 52 nM and the “emetic episodes or stereotypical behaviors indicative of nausea” value ([2]; 1-30 mg/kg s.c., 1 hr observation) was “did not elicit any emetic episodes or stereotypical behaviors that are indicative of nausea”.

For `CCCCC#Cc1cnc(C)c(OC[C@@H]2CCCN2)c1` [(S)-16, (S)-5-(hex-1-ynyl)-2-methyl-3-(pyrrolidin-2-ylmethoxy)pyridine], the Ki [1] was 540 nM and the “agonist activity at α4β2 nAChRs” value ([3]; result in words) was “didn't show detectable agonist activity”.

With `Cc1ncc(C#CCCCCO)cc1OC[C@@H]1CCN1` [(S)-17, (S)-6-(5-(azetidin-2-ylmethoxy)-6-methylpyridin-3-yl)hex-5-yn-1-ol] the “reduction in binding affinity for α4β2 nAChRs” value [4] was 70 fold and the Ki [1] was 11 nM.

In the case of `Cc1ncc(C#CCCCCCl)cc1OC[C@@H]1CCN1` [(S)-21, (S)-3-(azetidin-2-ylmethoxy)-5-(6-chlorohex-1-ynyl)-2-methylpyridine], the Ki [1] is reported as 32 nM and the “agonist activity at α4β2 nAChRs” value ([3]; result in words) is reported as “didn't show detectable agonist activity”.

`Cc1ncc(C#CCCCCF)cc1OC[C@@H]1CCN1` [(S)-22, (S)-3-(azetidin-2-ylmethoxy)-5-(6-fluorohex-1-ynyl)-2-methylpyridine] was tested, and the “agonist activity at α4β2 nAChRs” value ([3]; result in words) was “didn't show detectable agonist activity”.

Compound `Cc1ncc(C#CC2CC2)cc1OC[C@@H]1CCN1` [(S)-27, (S)-3-(azetidin-2-ylmethoxy)-5-(cyclopropylethynyl)-2-methylpyridine] has a Ki [1] of 31 nM.

With `CN1CCC[C@H]1c1cccnc1` [(−)-Nicotine, (−)-nicotine, reference compound] the “agonist activity at α4β2 nAChRs” value [3] was “full agonist activities” and the “agonist activity at α3β4 nAChRs” value [5] was “full agonist activities”.

`OCCCCC#Cc1cncc(OC[C@@H]2CCN2)c1` [Sazetidine-A, reference compound] showed a Ki [1] of 0.17 nM.

`c1cnc2cc3c(cc2n1)[C@@H]1CNC[C@H]3C1` [Varenicline, varenicline] was tested, and the Ki [1] was 1.1 nM, the emetic episodes ([2]; 0.5 mg/kg s.c.) was “no emetic episodes were observed” and the “time at which nausea behaviors manifested, on the average” value ([2]; 0.5 mg/kg s.c.) was ~2.20 min.
